Laboratory results published in publication PMC9006931, “Altered Response Pattern following AZD5582 Treatment of SIV-Infected, ART-Suppressed Rhesus Macaque Infants” (Journal of Virology, 2022).
Where two headings read alike, the source gives them in different places.

How the values were obtained:
memory CD4+ T cells = assay: Ki67 expression by whole blood flow cytometry, memory CD4+ T cells; type: in vivo, rhesus macaque; details: for Ki67 expression in memory CD4+ T cells: AZD5582 treated infant RMs
Procedure: The ncNF-κB pathway plays an important role in regulating T cell differentiation without causing broad systemic inflammation ([22]). We have previously observed a stimulatory effect on peripheral T cells following AZD5582 treatment specifically measurable through increased intracellular Ki67 expression ([17]). To further assess the effect of AZD5582 on infant RMs, flow cytometry was performed longitudinally on whole blood on the day of doses 1, 3, 6, and 9 and both 48 to 72h and 7 days after each of these doses. These time points were selected to allow longitudinal evaluation while remaining within blood volume constraints.
Multicolor flow cytometric analysis was performed on whole blood (WB) or cell suspensions using predetermined optimal concentrations of the following fluorescently conjugated monoclonal antibodies (MAbs). For WB T cell analysis the following MAbs were used: CD3-allophycocyanin (APC)-Cy7 (clone SP34-2), CD95-phycoerythrin (PE)-Cy5 (clone DX2), Ki67-AF700 (clone B56), HLA-DR-peridinin chlorophyll protein (PerCP)-Cy5.5 (clone G46-6), CCR7-fluorescein isothiocyanate (FITC) (clone 150503), CCR5-APC (clone 3A9), CD62L (clone SK11), and CD45-RA-PE-Cy7 (clone L45) from BD Biosciences; CD8-BV711 (clone RPA-T8), CD4-BV650 (clone OKT4), and PD-1-BV421 (clone EH12.2H7) from BioLegend; and CD28-ECD (clone CD28-2) from Beckman-Coulter. Flow cytometric acquisition and analysis of samples were performed on at least 100,000 events on an AURORA flow cytometer driven by the SpectroFlo software package (Cytek). Analyses of the acquired data were performed using FlowJo version 10.0.4 software (TreeStar).

[1] = Plasma pharmacokinetics of AZD5582 in infant RMs (HPLC-MS/MS, NCA); type: in vivo, rhesus macaque
Procedure: As a potential explanation for the dampened virologic response to AZD5582 observed in infant RMs, we investigated AZD5582 pharmacokinetics (PK) following the third dose using a sparse sampling design. Blood samples were collected immediately following infusion in 4 RMs and from 2 RMs per time point at 1 h, 2 h, 4 h, 8 h, and 24 h postinfusion. […] Noncompartmental analysis (NCA) was conducted to determine pharmacokinetic parameters in infants and compared with available PK data from adult historical controls of SIV-infected, ART-suppressed rhesus macaques (n = 7) given matched doses of AZD5582 (Fig. 4B) ([17]). […] Although corresponding data were not collected from adult macaques, we note that in infants the AUC0-24h was calculated as 239 ng × hr/mL.
Plasma samples were collected from RMs over 24 h following the start of a single 30 min intravenous infusion of AZD5582 using a previously published ([17]). A high-performance liquid chromatography-mass spectrometry (HPLC-MS/MS) method with a dynamic range of 0.2 to 1000 ng/mL. Noncompartmental analysis (NCA) was performed using Phoenix64 WinNonlin v8.1 software using the sparse sampling function to derive mean PK parameters. The linear up-log down trapezoidal rule was used to calculate AUC. The terminal elimination rate constant (kel) was estimated by fitting a linear regression line on a semilog plot to the individual concentration data constrained to observations from 4 to 24 h post start of infusion and used to calculate terminal elimination half-life. One observation below the assay’s limit of quantification was imputed at ½ the lower limit of quantification ([35]).

[2] = system: NF-κB associated genes in CD4+ T cells; assay: RNA-Seq of peripheral CD4+ T cells pre- and post-AZD5582; type: in vivo, rhesus macaque
Procedure: Treatment with AZD5582 in SIV-infected, ART-suppressed adult RMs upregulates key genes associated with signaling through the ncNF-kB pathway, rather than the canonical NF-κB (cNF-kB) pathway in CD4^+ T cells ([17]). Here, we performed RNA-Seq in total CD4^+ T cells isolated from the peripheral blood of AZD5582-treated infant macaques at baseline (pre-dose 1) and the end of the treatment period (post-dose 10).
RNA-sequencing (RNA-seq) analysis was conducted at the Yerkes Nonhuman Primate Genomics Core Laboratory (http://www.yerkes.emory.edu/nhp_genomics_core/). RNA was purified from 50,000 peripheral blood-derived CD4^+ T cells purified by negative selection and lysed in 350 μL of RLT buffer at −80°C, using Qiagen Micro RNEasy columns, and RNA quality was assessed using an Agilent Bioanalyzer. Following this, 2 ng of total RNA was used as input for mRNA amplification using 5′ template switch PCR with the Clontech SMART-seq v4 Ultra Low Input RNA kit according to the manufacturer’s instructions. Amplified mRNA was fragmented and appended with dual-index bar codes using Illumina NexteraXT DNA library preparation kits. Libraries were validated by capillary electrophoresis on an Agilent 4200 TapeStation, pooled and sequenced on an Illumina HiSeq 3000 using 100-bp single reads at an average depth of 25 million reads. Alignment was performed using STAR version 2.7.3a ([36]) and transcripts were annotated using a composite reference of rhesus macaque (Mmul10 Ensembl release 100).
Statistical analyses were performed using GraphPad Prism Software (v.7 or v.8). P ≤ 0.05 was considered statistically significant. To compare differences in pre-ART viral loads between experimental groups in Fig. 2D and SIV DNA levels in Fig. 3C a two-sided Mann-Whitney test was used. To test the statistical significance observed in Ki67 expression on memory CD4^+ and CD8^+ T cells in Fig. 3B, BIRC3, NFKB2 gene expression in Fig. 6A and B, and SIV RNA expression in Fig. 6C and D. A Wilcoxon matched-pairs signed-rank test was used. For RNA-seq analysis in Fig. 5, RNA-seq data were mapped to the NCBI Mmul10 assembly of the Indian rhesus macaque genome, and alignment was performed with STAR (v.2.7.3a) using Ensemble release 100 annotations as a transcript annotation and splice junction reference. Transcript abundance estimates were calculated internal to the STAR aligner using the algorithm of htseq-count ([37]). DESeq2 ([38]) was used for normalization and differential expression analysis. Gene set enrichment analysis ([39]) (GSEA), performed with the GSEA desktop module (available at https://www.broadinstitute.org/gsea/) and the Molecular Signatures Database (MSigDB), was used to determine pathway/gene set enrichment. Heat maps, volcano plots, and principal-component analysis plots were generated with the R (v 3.6.0) package ggplot2.

[3] = parameters: method as in PMID 31969707; details: adult RMs (n = 7), matched doses, plasma; cited from earlier work
[4] = rhesus monkey, in vivo, iv, 0.1 mg/kg
[5] = infant RMs, CD4+ T cells, post-dose 10 vs pre-dose 1

CN[C@@H](C)C(=O)N[C@H](C(=O)N1CCC[C@H]1C(=O)N[C@H]1c2ccccc2C[C@H]1OCC#CC#CCO[C@@H]1Cc2ccccc2[C@@H]1NC(=O)[C@@H]1CCCN1C(=O)[C@@H](NC(=O)[C@H](C)NC)C1CCCCC1)C1CCCCC1 [AZD5582]
Mean Ki67 expression in peripheral memory CD4+ T cells (memory CD4+ T cells; 3-days post-AZD5582 (doses 1, 3, 6, 9), P = 0.02): 28.4%
Ki67 expression in memory CD4+ T cells (memory CD4+ T cells; 7 days following dose 1): 46.9%
Ki67 expression in memory CD4+ T cells (memory CD4+ T cells; before the increase seen after dose 1): 8.7%
Other markers of activation, including HLA-DR and PD-1 (memory CD4+ T cells; T cells following AZD5582 treatment, infant RMs): did not observe increases
Mean Ki67 expression in peripheral memory CD4+ T cells (memory CD4+ T cells; baseline (immediately before doses 1, 3, 6, 9)): 21.0%
Average increase of Ki67 expression in memory CD4+ T cells after dose 1 (memory CD4+ T cells; relative to three baseline measurements, treated infant RMs): 24.3%
Fold lower AUC0-2h in infants compared with adults ([1]; infant vs adult RMs): 2.3 fold
AUC0-2h [1, 4]: 223 ng·h/mL
AUC0-24h [1, 4]: 239 ng·h/mL
Cmax [1, 4]: 294 ng/mL
t1/2 (terminal elimination halflife) [1, 4]: 9.9 h
BIRC3 and BIRC5 expression in CD4+ T cells ([2]; AZD5582 treated infant and adult RMs): most significantly upregulated
Genes downregulated following AZD5582 treatment [2, 5]: 176 genes
Genes upregulated following AZD5582 treatment [2, 5]: 855 genes
Genes differentially expressed following AZD5582 treatment ([2]; infant RMs, CD4+ T cells, post-dose 10 vs pre-dose 1, FDR 5%, linear fold change 50%): 1,031 genes
Expression of RELB, NFKB2 and NFKBIA in CD4+ T cells ([2]; treated infant RMs): did not observe increased expression
AUC0-2h [3]: 512 ng·h/mL
Cmax [3]: 802 ng/mL
